Laboratory results: US8309766B2 (Obschestvo S. Organichennoi Otvetstvennostiyu …, priority 2005, dated 2012)

Columns and labels:
[1] = test system: "acetic contortions" in mice; assay: Effect on analgetic action of Tramal and Analgin on the model "acetic contortions"; format: in vivo, white mongrel mice
Protocol: The tests were conducted on males of white mongrel mice weighing 22-24 grams. The specific pain response (“contortions”) were elicited by intraperitoneal administration to mice of 0.75% acetic acid solution. The following signs were taken into consideration: the number of seizure contractions of abdominal muscles accompanied by stretching the hind limbs and sagging the back. Analgetic effect was assessed by decrease in the number of contortions in animals in percent to the control for 15 minutes post administration of acetic acid. The technique of the tests is disclosed in Koster R., Anderson M., de Beer B.//Fed. Proc. 1959. V. 18. P. 412. Compounds under testing were administered intraperitoneally (using a probe) at a dose 10 μg/kg 60 minutes prior to injection of the acid. Diclofenac (10 mg/kg) was used as a reference drug. Analgetic effect was calculated according to the formula: […]
The studies were carried out in accordance with the technique presented in Example 18.

[2] = test system: rat uterine horn's SMP; assay: Serotonin-induced contracture of rat uterine horn smooth muscle preparation; set-up: species or system Wistar rats; conditions: for Inhibition of contractions of the rat uterine horn's SMP, % / Rate of contractions of the rat uterine horn's SMP during 5 minutes: serotonin 10^−5 M; for Rate of contractions of the rat uterine horn's SMP during 5 minutes: control 9
Protocol: The model of serotonin-induced soft muscular contracture of an uterine horn [Blattner H. G., Dehnert H. et al. Experiments on isolated smooth muscle preparation. Ed. J. M. Barnden and R. Colson, 1980] was created on females of Wistar rats weighing 300-350 grams. A prepared smooth muscle preparation (SMP) was placed into a thermo-regulated chamber (+37° C.) containing Tirode solution with lowered calcium content in order to prevent spontaneous contractive activity of the smooth muscle preparation. Contraction of the uterine horn was recorded using the mechanotron 6M×2B connected to the polygraph KPS-4; initial load to the object was 0.5-0.7 grams.
Contracture of the SMP was induced by introduction into incubation medium of 0.1 ml serotonin (Sigma) at concentration 10^−5 M. 30-60 seconds post administration of the mediator, a peak contraction amplitude of the uterine horn was recorded. Compound IX was introduced into the chamber at the peak amplitude of contractions or under conditions of incubation (within the same range of concentrations) for 15 minutes.
The effect of compound IX being tested was assessed by a number of contractions and by lowering the amplitude value.

[3] = test system: cyclooxygenase; assay: In vitro effect on [14C]arachidonic acid metabolism in a cell-free homogenate of murine pulmonary tissue; format: biochemical, CBA mice; conditions: compound 10^−4 M, 37° C., 30 minutes
Protocol: Studies of arachidonic acid metabolism was carried out on females CBA mice who where fed a standard vivarium fodder. Animals (mice) were sacrificed, lungs were extracted, homogenized in a glass homogenizer manufactured by the firm “Wheaton” (USA) at 4° C. in 10 volumes of 0.05 M Tris-HCl buffer. Aliquots (0.5 ml) of supernatant were incubated in 0.5 μCi [1-C^14]-arachidonic acid [C^14]-AA, “Amersham”, England; specific activity 50-60 μCi/mmole) at 37° C. for 30 minutes. Non-metabolized [αC^14]-AA and products of metabolism thereof were extracted in 20 volumes of chloroform and methanol mixture (1:1) in extraction efficacy not less than 90% assessed using [C^14]-PGF2α. [C^14]-AA and metabolites thereof were separated and identified using TLC (the plates Kieselgel 60 of the “Merck” firm, Germany) using as an organic phase, the system of solvents (ethylacetate, isooctane, acetic acid, water—110:50:20:100) and labeled standards. Densitometry of autoradiochromograms obtained on the X-ray film X-Omat AR (“Kodak”, USA) and HS 11 (“ORWO”, Germany), was performed on the densiscan KS 3 (“Kipp and Zonnen”, Holland). Quantitative analysis of individual eicosanoids was carried out using radiometry of fractions obtained by high-performance liquid chromatography (the HPLC-system of the “Gilson” form, France; the column ZORBAX C8 of the “Du Pont” firm, USA) and by elution of spots on TLC-plates. The tested compounds were administered at concentration 10^−4 M.

[4] = IX 10 mg/kg alone (Analgin study)
[5] = added at the peak serotonin-induced contracture

O=C(CCc1ccc(O)cc1)NCCc1ccccc1 [Compound IX, 3-(p-hydroxyphenyl)-propionylphenylethylamine]
Analgetic effect, % [1, 4]: 43.3%
Number of contortions for 15 minutes, M ± m [1, 4]: 18.8 ± 3.1
Analgetic effect, % ([1]; IX 10 mg/kg, Tramal 10 mg/kg, alone or combined): 33.6%
Inhibition of contractions of the rat uterine horn's SMP, % [2, 5]: 44.4%
Rate of contractions of the rat uterine horn's SMP during 5 minutes [2, 5]: 5
SMP contracture after the slowed contractions ([2]; pre-incubation conditions): complete blockade
Inhibition of contractions of the rat uterine horn's SMP, % ([2]; pre-incubation for 15 minutes): 55.6%
Rate of contractions of the rat uterine horn's SMP during 5 minutes ([2]; pre-incubation for 15 minutes): 4
Prostanoids ([3]; b308 reads these as % cyclooxygenase inhibition): −33
6-keto-PGF1α ([3]; change): −30
AA (arachidonic acid) ([3]; change): +47
PGE2 ([3]; change): −38
PGF2α ([3]; change): −27
TXB2 ([3]; change): −40
